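Following 48 hours of exposure in 96-well plates, responses at five concentrations were used to interpolate endpoints linearly. TGI is the concentration that stops growth completely.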
Columns and labels:
Assay in all cases: DTP human tumour cell line panel, 48 h
[1] = tested on: 786-0 renal
[2] = tested on: A549 NSCLC
[3] = tested on: COLO 205 colon
[4] = tested on: HL-60(TB) leukemia
[5] = tested on: K-562 leukemia
[6] = tested on: LOX IMVI melanoma
[7] = tested on: MDA-MB-231 breast
[8] = tested on: MDA-MB-435
[9] = tested on: NCI-H522 lung
[10] = tested on: NCI/ADR-RES ovarian
[11] = tested on: OVCAR-3 ovarian
[12] = tested on: OVCAR-5 ovarian
[13] = tested on: RPMI-8226 leukemia
[14] = tested on: RXF 393 renal
[15] = tested on: SF-539 CNS
[16] = tested on: SNB-19 CNS
[17] = tested on: SR leukemia
[18] = tested on: UACC-62 melanoma

| Structure (SMILES) | TGI [1] [µM] | TGI [2] [µM] | TGI [3] [µM] | TGI [4] [µM] | TGI [5] [µM] | TGI [6] [µM] | TGI [7] [µM] | TGI [8] [µM] | TGI [9] [µM] | TGI [10] [µM] | TGI [11] [µM] | TGI [12] [µM] | TGI [13] [µM] | TGI [14] [µM] | TGI [15] [µM] | TGI [16] [µM] | TGI [17] [µM] | TGI [18] [µM] |
| --- | --- | --- | --- | --- | --- | --- | --- | --- | --- | --- | --- | --- | --- | --- | --- | --- | --- | --- |
| CC1(C)CN=C(Nc2ccc(F)c(F)c2)S1 | > 100 | > 100 | > 100 | > 100 | > 100 | > 100 | > 100 | > 100 | > 100 | > 100 | > 100 | > 100 | > 100 | > 100 | > 100 | > 100 | > 100 | > 100 |
| COc1ccc(Nc2nc3ccccc3nc2C(=O)O)cc1OC | > 100 | > 100 | > 100 | > 100 | > 100 | > 100 | > 100 | > 100 | > 100 | > 100 | > 100 | > 100 | > 100 | > 100 | > 100 | > 100 | > 100 | > 100 |
| O=C(O)c1ccc(Nc2nc3cc(C(F)(F)F)ccc3nc2-c2ccccc2)cc1 | 35 | 40.3 | 37.9 | > 100 | 42.7 | 32.5 | > 100 | > 100 | 32.8 | 70.2 | 28.4 | 97.7 | 83.1 | 81.5 | 56.4 | > 100 | > 100 | 26.2 |
| NC(N)=NS(=O)(=O)c1ccc(NC(=O)c2ccc3[nH]c4ccccc4c(=O)c3c2)cc1 | > 100 | > 100 | > 100 | > 100 | > 100 | > 100 | > 100 | > 100 | > 100 | > 100 | > 100 | > 100 | > 100 | > 100 | > 100 | > 100 | > 100 | > 100 |
| Cn1c2c3c(F)c(F)ccc3nc-2cc2ccccc21 | 11.8 | 15.4 | 10.7 | 56.6 | > 100 | 5.23 | 20.8 | 15.7 | 14.3 | 7.68 | 13.6 | 9.07 | 11.5 | 26.9 | 13.5 | 18.2 | > 100 | 15.8 |
| CC(=O)Oc1c(C)c2c(c3ccccc13)OC(C)(C)C2 | 34.3 | 33.9 | 38.5 | 69.6 | > 100 |  | 48.6 | 33.2 | 36.7 | 51.4 | 52 | 34.4 | 39.1 | 35.9 | 37.3 | 69.7 | 52.8 | 30.3 |
| O=C(CCOS(=O)(=O)CF)N1CCN(C(=O)CCOS(=O)(=O)CF)CC1 | > 100 | > 100 | > 100 | 29.6 | > 100 | > 100 | > 100 | > 100 | > 90.1 | > 100 | > 100 | > 100 | > 46.4 | > 100 | > 100 | > 100 | > 100 | > 100 |
| COC(=O)[C@@H]1Cc2cc(O)c(O)cc2C2(CCN(C)CC2)O1 | > 10 | > 10 | > 10 | > 10 |  | > 10 | > 10 | > 10 | > 10 | > 10 | > 10 | > 10 | > 10 | > 10 | > 10 | > 10 | > 10 | > 10 |
| O=[N+]([O-])c1nccn1CCCNCCCn1ccnc1[N+](=O)[O-] | > 100 | > 100 | > 100 | > 100 | > 100 | > 100 | > 100 | > 100 | > 100 | > 100 | > 100 | > 100 | > 100 | > 100 | > 100 |  | > 100 | > 100 |
| COC(=O)c1c2c(cc3c1CC1(Cc4cc5c(cc4C1)CCC5)C3)CCC2 | > 100 | > 100 |  | > 100 | > 100 | > 100 | > 100 | > 100 | > 100 | > 100 | > 100 | > 100 | > 100 | > 100 | > 100 | > 100 | > 100 |  |
| CCN(CC)C(=S)SS(=O)(=O)c1ccccc1[N+](=O)[O-] | 33.2 | > 100 | > 100 | > 44.8 | 50.4 | > 57 | 37.3 | 53.9 | 2.83 | 97.5 | 68 | > 100 | 40.9 | 45.4 | 34.1 | > 92.8 | > 42.6 | > 100 |
| CN(C)c1ccc(C2ON=C(c3ccccc3)N2C23CC4CC(CC(C4)C2)C3)cc1 (centres undefined) | > 10 | > 10 | > 10 | > 10 | > 10 | > 10 | > 10 | > 10 | > 10 | > 10 | > 10 | > 10 | > 10 | > 10 | > 10 | > 10 | > 10 | > 10 |
| CC(=O)OCC(OC(C)=O)C(OC(C)=O)C(OC(C)=O)C(/C=N\Nc1nc2ccccc2c(=O)[nH]1)=N/Nc1nc2ccccc2c(=O)[nH]1 (centres undefined) | > 100 | > 100 | > 100 | > 100 | > 100 | > 100 | > 100 | > 100 | > 100 | > 100 | > 100 | > 100 | > 100 | > 100 | > 100 | > 100 | > 100 | > 100 |

From PubChem BioAssay (NCI)
